These are literature values, as cited in patent US20140287088A1, “Calcium Citrate-Malate as source of calcium to prevent bone diseases and increase bone strength in young animals and birds, especially young poultry, dogs, cats, swine, calves, and horses; and laying hens” (priority 2013, published 2014).

Series [1] concerns rats. The settings on record: by 12 wk.
For series [2] the following is noted: humans; CCM-fortified food vs food fortified with calcium carbonate.

Consider calcium citrate-malate [CC-M], for which the “more trabecular bone than rats fed calcium carbonate” value in series [1] is given as 44%. The “calcium absorption and retention” value in series [2] was “significantly greater”.
